The text below walks through data of patent publication US10683334B2 (INDIANA UNIVERSITY RESEARCH AND TECHNOLOGY CORPORATION, priority 2016, dated 2020).

The structures appear in SMILES notation. Square brackets hold non-standard residues; d marks the D form. Peptide text beside a SMILES is read from it. Aib = CC(C)(N)C(=O)O

Usually EC50 stands for the concentration needed to bring the measured effect to its halfway point. As usually defined, the solubility is the concentration that dissolves in the medium under given conditions. Read a low solubility as little dissolved substance.

One data set concerns the target hGLP-1R (Homo sapiens, UniProt P43220). The experiment in a line: cAMP luciferase reporter assay, activity at the GLP-1 receptor (Table 3). In general terms: Reporter assays use an easily measured gene product as a stand-in for the process of interest.
The nature of another data set: physchem. The following applies: pH 7.4. How it is done: 1 or 5 mg of pre-lyophilized peptide in 2 mL Eppendorf tube was treated with 200-400 uL of phosphate buffer (PBS: 50 mM sodium phosphate, 150 mM of sodium chloride, pH7.4). Samples were then vortexed and sonicated for 10 min then equilibrated at RT for 1H, and then centrifuged at 10 krpms for 10 min Concentration of the peptides in obtained supernatant was determined by measuring UV absorbance at λ=280 nm. […] Concentration in aliquots was reassessed as previously with UV absorbance. Change in peptide concentration was evaluated after 48 h and 7 days of storage at 4° C.

A further data set addresses glucagon receptor (Homo sapiens, UniProt P47871). Nature of the data set: Luciferase-based glucagon assay (cAMP reporter, HEK293 cells).

Sequence of hGLP-1R (P43220 24-463): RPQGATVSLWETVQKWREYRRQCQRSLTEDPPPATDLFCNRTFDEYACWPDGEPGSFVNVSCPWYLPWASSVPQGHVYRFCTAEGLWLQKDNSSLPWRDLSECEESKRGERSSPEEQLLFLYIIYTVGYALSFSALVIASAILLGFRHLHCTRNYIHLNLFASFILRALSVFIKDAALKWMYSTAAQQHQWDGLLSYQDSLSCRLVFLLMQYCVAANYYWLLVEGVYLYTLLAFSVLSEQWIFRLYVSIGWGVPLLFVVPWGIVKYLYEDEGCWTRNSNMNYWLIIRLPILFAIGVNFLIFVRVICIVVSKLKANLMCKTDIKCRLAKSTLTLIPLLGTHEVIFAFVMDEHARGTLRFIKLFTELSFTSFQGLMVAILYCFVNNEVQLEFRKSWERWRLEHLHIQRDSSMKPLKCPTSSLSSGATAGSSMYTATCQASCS
Sequence of glucagon receptor (P47871 26-477): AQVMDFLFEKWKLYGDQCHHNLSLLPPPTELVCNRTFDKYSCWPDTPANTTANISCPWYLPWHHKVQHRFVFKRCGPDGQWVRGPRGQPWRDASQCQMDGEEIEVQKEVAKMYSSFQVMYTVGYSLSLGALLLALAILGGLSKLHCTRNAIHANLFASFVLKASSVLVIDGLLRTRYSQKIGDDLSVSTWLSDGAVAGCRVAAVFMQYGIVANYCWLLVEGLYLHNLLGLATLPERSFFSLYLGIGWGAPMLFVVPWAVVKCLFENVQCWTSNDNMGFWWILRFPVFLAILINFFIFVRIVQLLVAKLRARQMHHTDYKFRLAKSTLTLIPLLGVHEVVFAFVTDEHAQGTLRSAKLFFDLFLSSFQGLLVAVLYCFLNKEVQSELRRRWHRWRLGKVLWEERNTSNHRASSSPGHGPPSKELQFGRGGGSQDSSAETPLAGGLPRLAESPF
Description for glucagon receptor: At the end of the incubation 100 microliters of LucLite luminescence substrate reagent (Perkin-Elmer, Wellesley, Mass.) were added to each well. […] The luminescent light output indicates activation of the luciferase reporter gene, which in turn is a measure of the activation of the receptor.

Take `CSCC[C@H](NC(=O)[C@H](CC(C)C)NC(=O)[C@H](Cc1c[nH]c2ccccc12)NC(=O)[C@H](CCC(N)=O)NC(=O)[C@@H](NC(=O)[C@H](Cc1ccccc1)NC(=O)[C@H](CC(=O)O)NC(=O)[C@@H](CCC(N)=O)NC(=O)[C@H](C)NC(=O)[C@H](CCCNC(=N)N)NC(=O)[C@H](CCCNC(=N)N)NC(=O)C(C)(C)NC(=O)[C@H](CC(=O)O)NC(=O)[C@H](CC(C)C)NC(=O)[C@H](Cc1ccc(O)cc1)NC(=O)[C@H](CCCCN)NC(=O)[C@H](CO)NC(=O)[C@H](Cc1cccnc1)NC(=O)[C@H](CC(=O)O)NC(=O)[C@H](CO)NC(=O)[C@@H](NC(=O)[C@H](Cc1ccccc1)NC(=O)[C@@H](NC(=O)CNC(=O)[C@H](CCC(N)=O)NC(=O)[C@H](CO)NC(=O)[C@@H](N)Cc1c[nH]cn1)[C@@H](C)O)[C@@H](C)O)C(C)C)C(=O)N[C@@H](CC(N)=O)C(=O)N[C@H](C(=O)O)[C@@H](C)O` [SEQ ID NO: 971, 3-Pal10, Aib16, q20]: the EC50 at hGLP-1R was > 10 nM. In the case of `CSCC[C@H](NC(=O)[C@H](CC(C)C)NC(=O)[C@H](Cc1c[nH]c2ccccc12)NC(=O)[C@H](CCC(N)=O)NC(=O)[C@@H](NC(=O)[C@H](Cc1ccccc1)NC(=O)[C@H](CC(=O)O)NC(=O)[C@@H](CCC(N)=O)NC(=O)[C@H](C)NC(=O)[C@H](CCCNC(=N)N)NC(=O)[C@H](CCCNC(=N)N)NC(=O)C(C)(C)NC(=O)[C@H](CC(=O)O)NC(=O)[C@H](CC(C)C)NC(=O)[C@H](Cc1ccc(O)cc1)NC(=O)[C@H](CCCCN)NC(=O)[C@H](CO)NC(=O)[C@H](Cc1ccc(O)cc1)NC(=O)[C@H](CC(=O)O)NC(=O)[C@H](CO)NC(=O)[C@@H](NC(=O)[C@H](Cc1ccccc1)NC(=O)[C@@H](NC(=O)CNC(=O)[C@H](CCC(N)=O)NC(=O)[C@H](CO)NC(=O)[C@@H](N)Cc1c[nH]cn1)[C@@H](C)O)[C@@H](C)O)C(C)C)C(=O)N[C@@H](CC(=O)O)C(=O)N[C@@H](CCC(=O)O)C(=O)O` [SEQ ID NO: 981, Aib16, q20, D28, E29] (H-HSQGTFTSDYSKYLD[Aib]RRA[dQ]DFVQWLMDE-OH; N-terminus and C-terminus assumed), the EC50 on hGLP-1R is > 10 nM.

Regarding `CSCC[C@H](NC(=O)[C@H](CC(C)C)NC(=O)[C@H](Cc1c[nH]c2ccccc12)NC(=O)[C@H](CCC(N)=O)NC(=O)[C@@H](NC(=O)[C@H](Cc1ccccc1)NC(=O)[C@H](CC(=O)O)NC(=O)[C@H](CCC(N)=O)NC(=O)[C@H](C)NC(=O)[C@H](CCCNC(=N)N)NC(=O)[C@H](CCCNC(=N)N)NC(=O)C(C)(C)NC(=O)[C@H](CC(=O)O)NC(=O)[C@H](CC(C)C)NC(=O)[C@H](Cc1ccc(O)cc1)NC(=O)[C@H](CCCCN)NC(=O)[C@H](CO)NC(=O)[C@H](Cc1ccc(O)cc1)NC(=O)[C@H](CC(=O)O)NC(=O)[C@H](CO)NC(=O)[C@@H](NC(=O)[C@H](Cc1cccnc1)NC(=O)[C@@H](NC(=O)CNC(=O)[C@H](CCC(N)=O)NC(=O)[C@H](CO)NC(=O)[C@@H](N)Cc1c[nH]cn1)[C@@H](C)O)[C@@H](C)O)C(C)C)C(=O)N[C@@H](CC(N)=O)C(=O)N[C@H](C(=O)O)[C@@H](C)O` [Compound 3, HSQGTXTSDYSKYLDZRRAQDFVQWLMNT], the solubility at 1 h in the data set “physchem” is > 1000 µg/mL. The EC50 on glucagon receptor (read-out: EC50 [nM] (SDV), luciferase-based glucagon assay, SDV in brackets) amounted to 0.017 nM. Besides, the “% bioactivity of GCG” value at glucagon receptor (relative to native glucagon) turned out to be 119%.
